Measurements as given in ChEMBL document CHEMBL1201862, “PubChem BioAssay data set” (2004).
pIC50: −log10 of the molar value. The source made the active and inactive calls.

Assays:
[1] = biological target: T1, Botulinum neurotoxin type A (Clostridium botulinum (strain Hall / ATCC 3502 / NCTC 13319 / Type A), UniProt P0DPI1); experiment: High-throughput multiplex microsphere dose response for inhibitors of toxin protease, specifically Botulinum neurotoxin light chain A protease, compounds from Powder Set 01.; assay type: functional, Clostridium botulinum A str. ATCC 3502; conditions: read-out: EC50_MICROM
[2] = biological target: Lethal factor (Bacillus anthracis, UniProt P15917); experiment: High-throughput multiplex microsphere dose response for inhibitors of toxin protease, specifically Lethal Factor protease, compounds from Powder Set 01.; assay type: functional, Bacillus anthracis str. A2012; conditions: read-out: EC50_MICROM
[3] = biological target: T1, Botulinum neurotoxin type A; experiment: Confirmatory FRET assay using full length substrates for Botulinum neurotoxin light chain A protease, with Powder Set01.; assay type: functional
[4] = toxicity to human hepatoma HepG2 cells – cell-based, cherry-picked samples, cytotoxicity control, dose response (AID 1159577); assay type: functional
[5] = general mammalian cell viability loss – activator set, cherry-pick, cytotoxicity control for miR-122 modulator project, dose response (AID 720690); assay type: functional, cell-based;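 also: HEK293T human cells scored for general mammalian cytotoxicity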
[6] = reduced cellular PGC1a acetyl-lysine signal – cell-based, cherry-picked samples, dose response (AID 720514); assay type: functional;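 also: potency may reflect raised or lowered acetylation signal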
[7] = P. falciparum Dd2 growth inhibitors, dose response, SYBR Green, cherry-picked samples (AID 1159567); assay type: functional, cell-based
[8] = activation of miR-122 Renilla sensor silencing – cell-based, Huh7 psiCHECK-miR122, Renilla luciferase, cherry-picked, dose response (AID 651956); assay type: functional;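 also: huh7 hepatoma cells stably carrying a psiCHECK-2 miR-122 sensor plasmid; renilla luciferase signal reporting endogenous miR-122 activity after 48 h compound exposure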
[9] = inhibitors of TRPM1-promoter reporter in SK-MEL-5 – cell-based, luciferase, dry powder, set 8, MITF inhibitor project, dose response (AID 624430); assay type: functional
[10] = MITF Orthogonal Assay: SK-MEL-5 CTG Assay Measured in Cell-Based System Using Plate Reader - 2084-02_Inhibitor_Dose_DryPowder_Activity_Set7.; assay type: functional
[11] = MITF: Counter assay: A375 proliferation Measured in Cell-Based System Using Plate Reader - 2084-03_Inhibitor_Dose_DryPowder_Activity_Set8.; assay type: functional; conditions: A-375
[12] = inhibitors acting on PAX2 in cells – cell-based, plate reader, dry powder samples, selectivity assay for PAX8 inhibitor project, dose response (AID 743048); assay type: functional;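 also: HEK293 cells carrying a WT1 promoter luciferase reporter driven by expressed Pax2; potency is for inhibition of Pax2 driven reporter signal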
[13] = biological target: Paired box protein Pax-8 (Homo sapiens, UniProt Q06710); experiment: PAX8 transcriptional activity inhibition in RMG-I – RMG-I cells, luciferase, cherry-pick, dose response (AID 687027); assay type: functional, cell-based;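 also: luciferase reporter driven by Pax8 target thyroperoxidase promoter measured by SteadyGlo luminescence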
[14] = PAX5 cellular inhibition readout – cell-based, plate reader, dry powder samples, selectivity assay for PAX8 inhibitor project, dose response (AID 743047); assay type: functional;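 also: HEK293 cells carrying a Pax5 driven CD19 promoter luciferase reporter; potency of inhibitors that lower reporter luminescence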
[15] = OV-90 cell viability loss – plate reader, dry powder, SA8, PAX8 inhibitor project, dose response (AID 743149); assay type: functional, cell-based
[16] = anti-trypanosomal activity in BESM host cells – imaging, CA-I/72 strain, bovine embryo skeletal muscle, dry powder, dose response (AID 651885); assay type: functional, cell-based
[17] = T. cruzi growth inhibition in host cells, dose response, cell-based, plate reader, dry powder, set 2 (AID 652275); assay type: functional
[18] = biological target: Metabotropic glutamate receptor 3 (Rattus norvegicus, UniProt P31422); experiment: inhibitors of rat mGlu3 Galpha15 signaling – TREx293 cells, calcium flux, mGlu3 NAM project, dose response (AID 651840); assay type: functional
[19] = biological target: Kappa-type opioid receptor (Homo sapiens, UniProt P41145); experiment: kappa opioid receptor antagonism potency – cell-based, fluorescence, dose response, late-stage follow-up (AID 652032); assay type: functional
Chain of Kappa-type opioid receptor (P41145 whole entry): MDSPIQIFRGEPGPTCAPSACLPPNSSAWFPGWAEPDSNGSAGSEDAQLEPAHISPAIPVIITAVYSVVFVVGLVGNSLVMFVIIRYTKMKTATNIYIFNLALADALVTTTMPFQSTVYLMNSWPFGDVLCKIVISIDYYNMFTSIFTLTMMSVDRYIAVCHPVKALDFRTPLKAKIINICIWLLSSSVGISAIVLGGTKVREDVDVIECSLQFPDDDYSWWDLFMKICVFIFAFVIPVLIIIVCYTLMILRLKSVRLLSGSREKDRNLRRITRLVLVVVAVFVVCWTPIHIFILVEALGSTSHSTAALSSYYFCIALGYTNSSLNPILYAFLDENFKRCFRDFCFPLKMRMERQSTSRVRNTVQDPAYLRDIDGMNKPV

T1 sequence (P0DPI1 2-448 limits assumed): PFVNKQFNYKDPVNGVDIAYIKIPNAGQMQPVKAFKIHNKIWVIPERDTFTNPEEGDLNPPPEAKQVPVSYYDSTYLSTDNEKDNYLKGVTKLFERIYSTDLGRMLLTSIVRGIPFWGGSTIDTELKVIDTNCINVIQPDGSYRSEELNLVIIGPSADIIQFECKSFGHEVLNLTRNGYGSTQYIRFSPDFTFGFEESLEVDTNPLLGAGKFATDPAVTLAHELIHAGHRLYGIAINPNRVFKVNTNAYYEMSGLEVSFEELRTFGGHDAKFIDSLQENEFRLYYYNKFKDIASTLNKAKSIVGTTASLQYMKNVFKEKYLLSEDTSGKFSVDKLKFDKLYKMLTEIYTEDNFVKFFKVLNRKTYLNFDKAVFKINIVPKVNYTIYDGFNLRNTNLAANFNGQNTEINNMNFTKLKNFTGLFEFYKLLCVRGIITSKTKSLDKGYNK
Chain of Paired box protein Pax-8 (Q06710 whole entry): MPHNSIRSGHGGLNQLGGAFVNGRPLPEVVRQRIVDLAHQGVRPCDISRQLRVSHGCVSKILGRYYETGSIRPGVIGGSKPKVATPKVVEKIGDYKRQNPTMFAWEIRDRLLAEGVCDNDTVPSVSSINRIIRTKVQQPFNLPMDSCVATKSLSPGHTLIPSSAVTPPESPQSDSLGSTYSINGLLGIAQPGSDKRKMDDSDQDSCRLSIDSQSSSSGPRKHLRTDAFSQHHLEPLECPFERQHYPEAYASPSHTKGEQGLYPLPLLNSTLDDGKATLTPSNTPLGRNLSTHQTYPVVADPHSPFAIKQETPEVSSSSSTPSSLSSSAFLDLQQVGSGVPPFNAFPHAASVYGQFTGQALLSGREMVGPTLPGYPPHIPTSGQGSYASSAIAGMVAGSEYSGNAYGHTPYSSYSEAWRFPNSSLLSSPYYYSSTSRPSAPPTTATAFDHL
Chain of Lethal factor (P15917 whole entry): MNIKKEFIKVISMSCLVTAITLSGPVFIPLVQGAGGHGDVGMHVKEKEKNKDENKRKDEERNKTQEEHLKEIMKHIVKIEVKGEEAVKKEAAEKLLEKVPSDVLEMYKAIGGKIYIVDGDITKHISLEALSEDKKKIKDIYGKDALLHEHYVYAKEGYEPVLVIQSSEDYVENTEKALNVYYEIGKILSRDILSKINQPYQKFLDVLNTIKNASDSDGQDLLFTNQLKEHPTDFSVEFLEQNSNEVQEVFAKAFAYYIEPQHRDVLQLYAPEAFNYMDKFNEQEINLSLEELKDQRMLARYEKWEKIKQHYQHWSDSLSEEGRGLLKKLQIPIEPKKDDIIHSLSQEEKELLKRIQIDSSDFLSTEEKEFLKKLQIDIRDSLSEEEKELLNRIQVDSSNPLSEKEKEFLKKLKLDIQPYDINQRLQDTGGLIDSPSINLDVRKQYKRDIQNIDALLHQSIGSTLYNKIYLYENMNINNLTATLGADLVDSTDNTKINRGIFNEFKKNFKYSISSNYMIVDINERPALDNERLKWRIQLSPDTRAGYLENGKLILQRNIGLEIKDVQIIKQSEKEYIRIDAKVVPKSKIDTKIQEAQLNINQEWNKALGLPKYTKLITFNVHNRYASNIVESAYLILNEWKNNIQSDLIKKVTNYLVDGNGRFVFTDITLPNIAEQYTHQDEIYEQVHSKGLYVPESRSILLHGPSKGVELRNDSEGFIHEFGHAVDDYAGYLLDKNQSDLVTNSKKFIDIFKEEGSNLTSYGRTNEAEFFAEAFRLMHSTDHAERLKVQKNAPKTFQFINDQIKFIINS
Chain of Metabotropic glutamate receptor 3 (P31422 whole entry): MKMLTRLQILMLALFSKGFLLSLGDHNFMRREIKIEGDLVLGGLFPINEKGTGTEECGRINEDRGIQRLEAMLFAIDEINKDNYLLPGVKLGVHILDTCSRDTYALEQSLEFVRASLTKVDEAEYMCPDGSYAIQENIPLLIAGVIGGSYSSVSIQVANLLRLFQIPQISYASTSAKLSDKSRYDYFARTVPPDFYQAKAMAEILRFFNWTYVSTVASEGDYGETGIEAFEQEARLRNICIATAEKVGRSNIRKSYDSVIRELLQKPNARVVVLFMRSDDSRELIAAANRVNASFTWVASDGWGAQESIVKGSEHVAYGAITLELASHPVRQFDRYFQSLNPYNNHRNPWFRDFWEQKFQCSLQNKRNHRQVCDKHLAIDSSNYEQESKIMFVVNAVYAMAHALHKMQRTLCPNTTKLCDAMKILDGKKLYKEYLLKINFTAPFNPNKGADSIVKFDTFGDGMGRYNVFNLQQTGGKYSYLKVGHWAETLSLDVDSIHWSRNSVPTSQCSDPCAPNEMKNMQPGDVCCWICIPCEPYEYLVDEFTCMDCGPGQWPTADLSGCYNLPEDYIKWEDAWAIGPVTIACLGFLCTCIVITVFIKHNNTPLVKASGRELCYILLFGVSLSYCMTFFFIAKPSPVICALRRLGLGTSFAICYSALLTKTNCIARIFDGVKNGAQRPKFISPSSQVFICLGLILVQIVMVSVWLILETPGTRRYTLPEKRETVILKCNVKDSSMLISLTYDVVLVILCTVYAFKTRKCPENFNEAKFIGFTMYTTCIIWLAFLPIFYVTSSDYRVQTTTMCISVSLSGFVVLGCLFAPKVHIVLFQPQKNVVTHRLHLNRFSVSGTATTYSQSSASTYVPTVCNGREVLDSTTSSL

COc1ccc(C2CC(c3cccs3)=NN2c2nc(C)c(C(C)=O)s2)cc1OC (centres undefined)
EC50 [1]: 7.5 µM (active)
EC50 [2]: 9.6 µM (active)
EC50 [3]: 10.4 µM (active)

O=C(Nc1ccc(F)cc1)N1CCCCN2[C@H](CO)[C@H](c3ccc(C#Cc4ccccc4)cc3)[C@H]2C1
AC50 [4]: 9.51 µM (active)
AC50 [5]: 7.78 µM (active)
AC50 [6]: 17.2 µM (active)
AC50 [7]: 1.2 µM (active)
AC50 [8]: 7.46 µM (active)

O=C1C=C(NCc2ccc(Cl)cc2)C(=O)c2ccccc21
AC50 [9]: > 70 µM (inactive)
AC50 [10]: 53.3 µM (active)
AC50 [11]: > 70 µM (inactive)

COc1ccc(S(=O)(=O)N2CCCCN3[C@H](CO)[C@H](c4ccc(C#CC(C)C)cc4)[C@H]3C2)cc1
AC50 [12]: 40.7 µM (active)
AC50 [13]: 10.4 µM (active)
AC50 [14]: 36.8 µM (active)
AC50 [15]: 65.5 µM (active)

C[C@@H]1CN([C@@H](C)CO)C(=O)c2cccc(NC(=O)c3ccncc3)c2O[C@H]1CN(C)Cc1ccc(Cl)cc1
IC50 [16]: 0.02 µM (active)
AC50 [17]: 0.0633 µM (active)

CCC1(O)CCCN(C(=O)c2ccc(C#Cc3ccc(OC)cc3)cc2)C1 (centres undefined)
pIC50 [18]: 5.74

COC(=O)c1cc(-c2ccccc2)cnc1N1CCC(NC2CCCCC2)CC1
IC50 [19]: 6.2 µM (active)
